Assay results reported in ChEMBL document CHEMBL1147023, “(R)-sila-venlafaxine: a selective noradrenaline reuptake inhibitor for the treatment of emesis” (Bioorg Med Chem Lett, 2006).
Active and inactive are the calls of the source. No cut-off for these calls is given here.

Legend:
[1] = molecular target: T1, Voltage-gated L-type calcium channel (Homo sapiens, UniProt Q13936+Q13698+Q01668+O60840); assay: Inhibition of verapamil sensitive L type calcium channel by radioligand […] assay; assay type: protein assay
[2] = molecular target: T1, Voltage-gated L-type calcium channel; assay: Inhibition of diltiazem sensitive L type calcium channel by radioligand […] assay; assay type: protein assay
[3] = molecular target: Sodium-dependent noradrenaline transporter (Homo sapiens, UniProt P23975); assay: Inhibition of noradrenaline reuptake at human recombinant noradrenaline transporter
[4] = molecular target: Sodium-dependent serotonin transporter (Homo sapiens, UniProt P31645); assay: Inhibition of serotonin reuptake at human recombinant serotonin transporter
[5] = Inhibitory activity against site 2 of sodium channel by radioligand […] assay
[6] = test system: Mustela putorius furo; assay: Activity against morphine-induced emesis in ferret at 50 mg/kg; assay type: functional, organism-based; design: dose 50 mg/kg
[7] = test system: Mustela putorius furo; assay: Inhibition of morphine-induced emesis in ferret at 5 mg/kg; assay type: functional
[8] = test system: Mustela putorius furo; assay: Activity against morphine-induced emesis in ferret at 1 mg/kg; assay type: functional, organism-based; design: dose 1 mg/kg
[9] = Plasma half life in ferret at 5 mg/kg, po; assay type: ADME, organism-based, Mustela putorius furo; design: dose 5 mg/kg, route oral
[10] = Cmax in ferret at 5 mg/kg, po; assay type: ADME, organism-based, Mustela putorius furo; design: dose 5 mg/kg, route oral; settings: in vivo

Sodium-dependent noradrenaline transporter, sequence (P23975 whole entry): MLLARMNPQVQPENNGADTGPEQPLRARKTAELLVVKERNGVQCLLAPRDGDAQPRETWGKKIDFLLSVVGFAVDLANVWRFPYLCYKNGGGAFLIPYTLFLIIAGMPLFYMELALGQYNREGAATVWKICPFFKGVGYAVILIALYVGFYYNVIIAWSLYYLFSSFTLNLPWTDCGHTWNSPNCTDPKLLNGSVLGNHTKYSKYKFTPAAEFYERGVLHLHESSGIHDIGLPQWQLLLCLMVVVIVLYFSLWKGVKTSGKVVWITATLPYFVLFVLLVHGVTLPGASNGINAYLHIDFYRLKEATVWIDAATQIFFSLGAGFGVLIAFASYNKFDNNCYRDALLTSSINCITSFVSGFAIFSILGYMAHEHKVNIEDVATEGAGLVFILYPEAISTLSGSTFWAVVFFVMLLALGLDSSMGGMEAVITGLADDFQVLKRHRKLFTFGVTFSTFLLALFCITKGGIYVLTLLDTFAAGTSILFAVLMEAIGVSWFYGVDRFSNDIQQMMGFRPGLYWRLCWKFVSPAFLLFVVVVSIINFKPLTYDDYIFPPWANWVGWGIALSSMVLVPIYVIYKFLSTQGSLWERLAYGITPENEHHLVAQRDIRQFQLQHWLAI
Sodium-dependent serotonin transporter, sequence (P31645 whole entry): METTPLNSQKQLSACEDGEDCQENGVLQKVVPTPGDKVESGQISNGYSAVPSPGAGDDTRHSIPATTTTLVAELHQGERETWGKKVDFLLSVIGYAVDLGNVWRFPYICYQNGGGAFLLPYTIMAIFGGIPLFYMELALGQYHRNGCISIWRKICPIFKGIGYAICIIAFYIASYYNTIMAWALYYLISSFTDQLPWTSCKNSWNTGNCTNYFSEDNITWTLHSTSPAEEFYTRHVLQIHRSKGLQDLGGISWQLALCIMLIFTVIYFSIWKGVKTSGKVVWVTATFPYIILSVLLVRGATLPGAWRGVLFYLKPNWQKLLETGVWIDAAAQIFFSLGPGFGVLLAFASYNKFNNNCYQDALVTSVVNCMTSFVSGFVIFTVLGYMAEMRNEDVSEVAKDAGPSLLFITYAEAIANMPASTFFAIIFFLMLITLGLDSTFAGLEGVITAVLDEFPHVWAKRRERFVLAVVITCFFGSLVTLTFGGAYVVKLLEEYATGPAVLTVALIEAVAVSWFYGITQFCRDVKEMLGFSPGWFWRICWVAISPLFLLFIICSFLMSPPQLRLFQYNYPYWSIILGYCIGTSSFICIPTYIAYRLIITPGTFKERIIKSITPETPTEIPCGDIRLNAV

## COc1ccc([C@H](CN(C)C)[Si]2(O)CCCCC2)cc1
[1]
  IC50: 8.6 µM
[2]
  IC50: 2.7 µM
[3]
  IC50: 0.2 µM
[4]
  IC50: 4.2 µM
[5]
  IC50: 5.1 µM
[6]
  Activity: Active
[7]
  inhibition in vivo at 5 mg/kg: 93%
[8]
  Activity: inactive
[9]
  half-life: 1.1 h
[10]
  Cmax: 225 ng/mL
